Measured values published in patent US9085520B2, “Composition for treating diabetes and metabolic diseases and a preparation method thereof” (KAOHSIUNG MEDICAL UNIVERSITY, priority 2011, dated 2015).
“Also recorded” adds a separate entry of the source.

How the values were obtained:
3T3-L1 adipocytes [1] = experiment: adipocyte death / toxicity to adipocytes; details: 30 μg/ml, matured 3T3-L1 adipocytes, 24 hours
3T3-L1 adipocytes [2] = experiment: glucose consumption (remaining glucose) in culture medium of 3T3-L1 adipocytes; type: cell-based; details: for remaining glucose concentration in culture medium after 24 hours: culture medium of 3T3-L1 adipocytes after 24 hours, means ± SD, N = 3; for glucose absorption activity of adipocytes 3T3-L1 (anti-hyperglycemic ability): FIG. 1, medium glucose 300 mg/dl, remaining glucose after 24 hours
Method: After precursor adipocytes 3T3-L1 were induced as the matured adipocytes, culture medium with glucose (concentration of 300 mg/dl) and drugs were added, and the concentration of the remaining glucose in the culture medium were measured after 24 hours.
Adipose tissues are major sites for postprandial glucose uptake. Therefore, in vitro anti-diabetic screening model based on measuring glucose consumption after 24 hours in culture medium of 3T3-L1 adipocytes was developed. […] Accordingly, 60 chalcone derivatives with and without substitutions on A-ring were examined in our developed model. […] Structure-activity relationship (SAR) analyses data are also determined.

C57BL/6 mice [3] = experiment: fasting blood glucose level of HF diet mice; type: in vivo; details: oral 6.75 mg/kg/day, 7 weeks, FIG. 3(a)
Excerpt: (§1) Please refer to FIG. 2, C57BL/6 mice were grouped as four groups. (a) “Control” group (normal healthy animal group): the mice were fed with normal feed. (b) “High-fat (HF) diet” group (unhealthy negative control group): the mice were fed with high-fat-percentage feed (at least 40% fat) for a long-term period for inducing obesity and metabolic syndromes. (c) “HF diet+pioglitazone” group (clinical administration control group): the mice were fed with high-fat-percentage feed (at least 40% fat) for a long-term period for inducing obesity and metabolic syndromes and simultaneously administered with the clinically anti-diabetes TZD, pioglitazone (oral dosage: 6.75 mg/kg/day). […] The number of mice in the groups (a) to (d) were 5, 5, 6 and 13 respectively.
(§2) The numbers of mice in Experiment 4 were the same as in Experiment 3, and mice were divided as four groups, “control”, “HF diet”, “HF diet+pioglitazone” and “HF diet+compound 12” groups.

C57BL/6 mice [4] = experiment: body weight gain of high-fat diet induced obesity mice; type: in vivo; details: HF diet C57BL/6 mice
Excerpt: as §1
(§3) The method and conditions for performing Experiment 7 were similar to those in Experiments 3 and 4, wherein C57BL/6 mice were grouped as five groups, (a) “Control” group (n=6), (b) “HF diet” group (n=7); (c) “HF diet+pioglitazone” group (oral dosage: 6.75 mg/kg/day pioglitazone, n=8); (d) “HF diet+compound 26×1” group: the mice were fed with high-fat-percentage feed (at least 40% fat) for a long-term period for inducing obesity and metabolic syndromes and simultaneously administered with compound 26 (oral dosage: 6.75 mg/kg/day, n=11); and (e) “HF diet+compound 26×5” group (oral dosage: 33.75 mg/kg/day compound 26, n=12).

3T3-L1 adipocytes [5] = experiment: lipid droplet formation in 3T3-L1 adipocytes (Oil-Red O staining); type: cell-based; details: insulin 3.2×10^−7 M, RSZ, PIO, chalcone derivatives 30 μg/ml, DMEM 25 mM D-glucose, 4 days
Method: After two days of differentiation, 3T3-L1 cells were treated without (control) or with insulin (3.2×10^−7 M), RSZ (30 μg/ml), PIO (30 μg/ml), and chalcone derivatives (30 μg/ml) in DMEM containing 25 mM D-glucose. After 4 days, lipid droplets were observed by Oil-Red O staining (data not shown).

C57BL/6 mice [6] = experiment: oral glucose tolerance test (OGTT) in HF diet mice; type: in vivo; details: 7 weeks
Method: as §2, §3

Row | Compound | adipocyte death / toxicity to adipocytes (3T3-L1 adipocytes [1]) | remaining glucose concentration in culture medium after 24 hours (3T3-L1 adipocytes [2]; 30 μg/ml, control 310 ± 4.0) | glucose absorption activity of adipocytes 3T3-L1 (anti-hyperglycemic ability) (3T3-L1 adipocytes [2]; 30 μg/ml) | other results
1 | COc1cccc(/C=C/C(=O)c2ccccc2O)c1 [Compound 4, (E)-1-(2-hydroxyphenyl)-3-(3-methoxyphenyl)prop-2-en-1-one] | non-toxic | 264 ± 7.8 mg/dL | – | –
2 | COc1ccc(/C=C/C(=O)c2ccc(O)cc2O)cc1 [Compound 5, (E)-1-(2,4-dihydroxyphenyl)-3-(4-methoxyphenyl)-prop-2-en-1-one] | lead to adipocyte death; also recorded: toxic | 248 ± 0.4 mg/dL | not significantly better than that in compound 9 | –
3 | COc1ccc(/C=C/C(=O)c2ccccc2Br)cc1 [Compound 12, (E)-1-(2-bromophenyl)-3-(4-methoxyphenyl)prop-2-en-1-one] | didn't result in adipocyte death | – | best anti-hyperglycemic ability; also recorded: best activity | fasting blood glucose level (C57BL/6 mice [3]): significantly inhibit the increase of blood glucose level; also recorded: inhibition of the blood glucose level; body weight gain (C57BL/6 mice [4]; oral dosage 6.75 mg/kg/day, FIG. 2): significantly inhibit the body weight gain; also recorded: inhibited; formation of lipid droplets (3T3-L1 adipocytes [5]): significantly prevent the formation of lipid droplets; glucose intolerance (OGTT) (C57BL/6 mice [6]; HF diet mice, oral 6.75 mg/kg/day, FIG. 3(b), 6.75 mg/kg/day): significantly inhibit the occurrence of glucose intolerance; also recorded: inhibition of glucose intolerance
4 | O=C(/C=C/c1ccc(OCc2ccccc2)cc1)c1ccc(O)cc1O [Compound 3, (E)-3-(4-(benzyloxy)phenyl)-1-(2,4-dihydroxyphenyl)prop-2-en-1-one] | lead to adipocyte death; also recorded: toxic | 249 ± 12.2 mg/dL | not significantly better than that in compound 9 | –
5 | COc1cccc(/C=C/C(=O)c2ccc(O)cc2O)c1 [Compound 6, (E)-1-(2,4-dihydroxyphenyl)-3-(3-methoxyphenyl)-prop-2-en-1-one] | lead to adipocyte death; also recorded: toxic | 274 ± 12.1 mg/dL | not significantly better than that in compound 9 | –
6 | O=C(/C=C/c1ccccc1)c1ccccc1 [Compound 9, (E)-chalcone] | non-toxic | 253 ± 9.9 mg/dL | relatively similar | –
7 | O=C(/C=C/c1ccccc1)c1ccc(O)cc1O [Compound 2, (E)-1-(2,4-dihydroxyphenyl)-3-phenylprop-2-en-1-one] | lead to adipocyte death; also recorded: toxic | 273 ± 2.9 mg/dL | not significantly better than that in compound 9 | –
8 | COc1ccc(/C=C/C(=O)c2ccccc2I)cc1 [Compound 26, (E)-1-(2-iodophenyl)-3-(4-methoxyphenyl)prop-2-en-1-one] | didn't result in adipocyte death | – | best anti-hyperglycemic ability | body weight / obesity (C57BL/6 mice [4]; oral dosage 6.75 or 33.75 mg/kg/day, FIG. 5): significantly prevents obesity; also recorded: inhibited; formation of lipid droplets (3T3-L1 adipocytes [5]): significantly prevent the formation of lipid droplets; glucose intolerance / insulin resistance (C57BL/6 mice [6]; HF diet C57BL/6 mice, oral dosage 6.75 or 33.75 mg/kg/day, FIG. 6): significantly prevents obesity and insulin resistance; also recorded: inhibition of glucose intolerance
9 | Insulin: insulin, positive control in the adipocyte tests | – | – | – | glucose consumption (3T3-L1 adipocytes [2]; Experiment 6, insulin 3.2×10^−7 M, RSZ, PIO 30 μg/ml, DMEM 25 mM D-glucose): promote glucose consumption; remaining glucose concentration in culture medium after 24 hours (3T3-L1 adipocytes [2]; insulin 3.2 × 10^−17M): 294 ± 6.3 mg/dL; formation of lipid droplets (3T3-L1 adipocytes [5]): increase the lipid droplets in adipocytes
10 | O=C(/C=C/c1ccccc1)c1ccccc1Br [Compound 48, (E)-1-(2-bromophenyl)-3-phenylprop-2-en-1-one] | – | 249 ± 20.8 mg/dL | – | –
11 | COc1cccc(/C=C/C(=O)c2ccc(F)cc2)c1 [Compound 42, (E)-1-(4-fluorophenyl)-3-(3-methoxyphenyl)prop-2-en-1-one] | – | 285 ± 1.6 mg/dL | – | –
12 | COc1ccc(/C=C/C(=O)c2ccccc2O)cc1 [Compound 1, (E)-1-(2-hydroxyphenyl)-3-(4-methoxyphenyl)prop-2-en-1-one] | non-toxic | 283 ± 21.4 mg/dL | – | –
13 | COc1cccc(/C=C/C(=O)c2cccc(F)c2)c1 [Compound 41, (E)-1-(3-fluorophenyl)-3-(3-methoxyphenyl)prop-2-en-1-one] | – | 282 ± 10.1 mg/dL | – | –
14 | COc1cccc(/C=C/C(=O)c2ccccc2)c1 [Compound 8, (E)-3-(3-methoxyphenyl)-1-phenylprop-2-en-1-one] | – | 261 ± 7.2 mg/dL | – | –
15 | O=C(/C=C/c1ccc2c(c1)OCO2)c1ccccc1 [Compound 32, (E)-3-(benzo[d][1,3]dioxol-5-yl)-1-phenylprop-2-en-1-one] | – | 252 ± 18.1 mg/dL | – | –
16 | COc1ccc(/C=C/C(=O)c2ccc(I)cc2)cc1 [Compound 59, (E)-1-(4-iodophenyl)-3-(4-methoxyphenyl)prop-2-en-1-one] | – | 299 ± 3.8 mg/dL | – | –
